Assay results: article PMC11125359 (Pharmaceuticals, 2024)

How the values were obtained:
[1] = test system: α-amylase; assay: α-Amylase inhibition (anti-diabetic); type: biochemical; conditions: equal concentrations (1000 µg/mL); mean ± SE
[2] = test system: α-glucosidase; assay: α-Glucosidase inhibition (anti-diabetic); type: biochemical; conditions: equal concentrations (1000 µg/mL); mean ± SE
[3] = biological target: acetylcholinesterase (AChE) (Homo sapiens, UniProt P22303); assay: biochemical; conditions: same concentration (1000 µg/mL); mean ± SE
[4] = biological target: bovine serum albumin (BSA) (Bos taurus, UniProt P02769); conditions: equal concentrations (1000 µg/mL); mean ± SE
[5] = test system: proteinase enzyme (trypsin); assay: Proteinase enzyme inhibition (anti-inflammatory); type: biochemical; conditions: equal concentrations (1000 µg/mL); mean ± SE
[6] = Iron-reducing power (IRP); conditions: equal concentrations (1000 µg/mL); mean ± SE, three replicates
Protocol: (§1) All in vitro biological activities were assessed in the tested compounds at equal concentrations (1000 µg/mL). All assays were carried out in triplicate.
In vitro biological activities
(§2) The total antioxidant capacity (TAC) was determined by analyzing the green phosphate/Mo5+ complex at a wavelength (λ) of 695 nm, following the procedure described by Prieto
(§3) et al. Samples (at each concentration) were mixed with a reagent solution containing 0.3 N sulfuric
(§4) acid, 28 mM sodium phosphate, and 4 mM ammonium molybdate. Methanol (80%) was used in place
(§5) of the sample for the blank. The tubes were sealed and incubated in a boiling water bath for 90
(§6) minutes. After cooling to room temperature, the absorbance was measured at 695 nm against the
(§7) blank. Ascorbic acid was used at the same concentrations as a standard. The antioxidant capacity was
(§8) expressed as mg gallic acid equivalent per gram weight.
(§9) The iron reducing power was determined as µg/mL using the method proposed by Oyaizu
(§10) In brief, 1ml of the tested sample (at each concentration) was combined with 1mL of 200mM
(§11) sodium phosphate buffer (pH 6.6) and 1mL of 1% potassium ferricyanide. The mixture was then
(§12) incubated at 50°C for 20 minutes, followed by the addition of 1mL of trichloroacetic acid (10%). After
(§13) centrifugation at 2000rpm for 10 minutes, the upper layer solution (2.5 mL) was mixed with 2.5 mL of double deionized water and 1mL of fresh ferric chloride (0.1%). The absorbance was measured at
(§14) 700nm against a blank prepared without the sample. Ascorbic acid was used at the same
(§15) concentrations as a standard. A high absorbance at 700nm indicates a higher reducing power in the
(§16) The 1,1-Diphenyl-2-picryl-hydrazyl (DPPH) radical scavenging activities were evaluated using the method described by Rahman et al. An antioxidant substance capable of donating a
(§17) hydrogen atom to a solution containing DPPH- can reduce the stable free radical, causing the solution
(§18) to change color from violet to pale yellow. The remaining DPPH- radical was quantified by
(§19) nm using a spectroscopic method. Two milliliters of a DPPH solution (100 µM) in ethanol were mixed
(§20) with 2 mL of the sample (at each concentration). The reaction mixture for each concentration was
(§21) thoroughly vortexed and then incubated in the dark at room temperature for 30 minutes. The
(§22) absorbance was then measured spectrophotometrically at 518 nm against a blank (ethanol). For the
(§23) control, 2 mL of ethanol was added instead of the sample and run simultaneously with the test.
(§24) Ascorbic acid was used at the same concentrations as a positive control. Percent inhibition of the
(§25) DPPH free radical was calculated. The median inhibitory concentration (IC 50) for each tested
(§26) The procedure for the 2,2'-azinobis-(3-ethylbenzothiazoline-6-sulfonic acid) (ABTS) assay
(§27) potassium persulfate solution (2.4 mM). The working solution was prepared by mixing the two stock
(§28) solutions in equal quantities and allowing them to react at room temperature in a dark place for 14
(§29) hours. The solution was then diluted by mixing 1 mL of ABTS solution with 60 mL of methanol to
(§30) was prepared for each assay. The tested samples (at each concentration) were allowed to react with 1
(§31) mL of the ABTS solution, and the absorbance was taken at 734 nm after 7 minutes using a
(§32) spectrophotometer. The ABTS scavenging capacities of the samples were compared with that of
(§33) ascorbic acid (at the same concentrations).

[7] = ABTS radical scavenging assay; conditions: equal concentrations (1000 µg/mL); mean ± SE
Protocol: as §1
In vitro biological activities
as §2, §3, §4, §5, §6, §7, §8, §9, §10, §11, §12, §13, §14, §15, §16, §17, §18, §19, §20, §21, §22, §23, §24, §25, §26, §27, §28, §29, §30, §31, §32, §33

[8] = DPPH radical-scavenging activity; conditions: read-out: DPPH (IC50); mean ± SE, three replicates
Protocol: In vitro biological activities
as §16, §17, §18, §19, §20, §21, §22, §23, §24, §25

[9] = Total antioxidant capacity (TAC), phosphomolybdenum method; conditions: equal concentrations (1000 µg/mL); mean ± SE, three replicates
Protocol: as §1
In vitro biological activities
as §2, §3, §4, §5, §6, §7, §8, §9, §10, §11, §12, §13, §14, §15, §16, §17, §18, §19, §20, §21, §22, §23, §24, §25, §26, §27, §28, §29, §30, §31, §32, §33

Chain of acetylcholinesterase (AChE) (P22303 32-614, species assumed): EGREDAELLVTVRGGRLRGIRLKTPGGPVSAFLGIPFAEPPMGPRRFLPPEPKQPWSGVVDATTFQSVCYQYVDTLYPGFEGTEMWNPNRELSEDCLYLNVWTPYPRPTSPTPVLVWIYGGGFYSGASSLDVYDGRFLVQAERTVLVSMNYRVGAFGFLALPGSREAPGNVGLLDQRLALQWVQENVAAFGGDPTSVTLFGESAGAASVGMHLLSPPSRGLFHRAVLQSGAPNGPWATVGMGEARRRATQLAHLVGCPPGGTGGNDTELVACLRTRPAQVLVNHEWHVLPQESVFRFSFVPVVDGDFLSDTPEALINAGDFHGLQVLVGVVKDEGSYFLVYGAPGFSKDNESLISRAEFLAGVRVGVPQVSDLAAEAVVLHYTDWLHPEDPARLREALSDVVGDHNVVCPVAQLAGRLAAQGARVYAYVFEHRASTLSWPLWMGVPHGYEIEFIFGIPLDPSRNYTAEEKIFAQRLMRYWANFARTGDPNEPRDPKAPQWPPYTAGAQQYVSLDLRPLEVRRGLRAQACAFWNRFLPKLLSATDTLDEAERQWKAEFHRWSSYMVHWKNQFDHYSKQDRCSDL
Chain of bovine serum albumin (BSA) (P02769 25-607): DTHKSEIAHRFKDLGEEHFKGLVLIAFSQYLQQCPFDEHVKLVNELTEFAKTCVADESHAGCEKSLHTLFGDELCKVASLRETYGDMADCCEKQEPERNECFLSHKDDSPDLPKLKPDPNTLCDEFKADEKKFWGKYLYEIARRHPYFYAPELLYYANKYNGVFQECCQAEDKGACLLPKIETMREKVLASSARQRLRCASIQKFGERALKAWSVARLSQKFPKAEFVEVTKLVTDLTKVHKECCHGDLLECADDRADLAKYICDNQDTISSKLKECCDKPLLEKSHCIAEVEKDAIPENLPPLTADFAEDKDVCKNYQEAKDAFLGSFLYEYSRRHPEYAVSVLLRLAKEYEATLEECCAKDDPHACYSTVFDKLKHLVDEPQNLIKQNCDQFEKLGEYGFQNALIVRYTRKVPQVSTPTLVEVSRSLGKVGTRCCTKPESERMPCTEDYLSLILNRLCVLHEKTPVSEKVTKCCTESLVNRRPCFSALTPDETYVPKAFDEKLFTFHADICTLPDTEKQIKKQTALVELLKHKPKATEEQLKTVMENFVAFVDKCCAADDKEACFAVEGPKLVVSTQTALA

| Structure (SMILES) | Inhibition (%) α-Amylase [1] [%] | Inhibition (%) α-Glucosidase [2] [%] | inhibition at 1000 µg/mL [3] [%] | Inhibition (%) Protein Denaturation [4] [%] | Inhibition (%) Proteinase [5] [%] | Iron-Reducing Power (IRP) [6] [µg/mL] | ABTS (%) inhibition [7] [%] | IC50 [8] [µM] | Total Antioxidant Capacity (TAC) [9] [mg Gallic Acid/g] |
| --- | --- | --- | --- | --- | --- | --- | --- | --- | --- |
| Cc1ccc(NC(=O)c2c(Nc3ccccc3)n[nH]c2/N=C/c2ccc(N3CCCCC3)cc2)cc1 [5b] | 9.12 ± 0.01 | 7.85 ± 0.01 | 12.28 ± 0.01 | 7.83 ± 0.01 | 6.81 ± 0.01 | 10.01 ± 0.02 | 22.03 ± 0.01 | 59.8 ± 0.03 | 15.26 ± 0.06 |
| O=C(Nc1ccc(Cl)cc1)c1c(Nc2ccccc2)n[nH]c1/N=C/c1ccc(N2CCCCC2)cc1 [5c] | 17.94 ± 0.03 | 15.43 ± 0.03 | 24.15 ± 0.01 | 15.41 ± 0.02 | 13.40 ± 0.02 | 19.68 ± 0.04 | 43.34 ± 0.03 | 42.86 ± 0.02 | 30.01 ± 0.11 |
| Cc1nn(-c2ccccc2)c(Cl)c1C=Nc1[nH]nc(Nc2ccccc2)c1C(=O)Nc1ccccc1 [6a] | 17.85 ± 0.03 | 15.35 ± 0.03 | 24.03 ± 0.01 | 15.33 ± 0.02 | 13.33 ± 0.02 | 19.58 ± 0.04 | 43.12 ± 0.03 | 43.35 ± 0.02 | 29.86 ± 0.11 |
| Cc1ccc(NC(=O)c2c(Nc3ccccc3)n[nH]c2N=Cc2c(C)nn(-c3ccccc3)c2Cl)cc1 [6b] | 20.89 ± 0.03 | 17.96 ± 0.03 | 28.11 ± 0.02 | 17.94 ± 0.02 | 15.60 ± 0.02 | 22.91 ± 0.04 | 50.45 ± 0.03 | 36.02 ± 0.02 | 34.93 ± 0.13 |
| Cc1nn(-c2ccccc2)c(Cl)c1C=Nc1[nH]nc(Nc2ccccc2)c1C(=O)Nc1ccc(Cl)cc1 [6c] | 20.92 ± 0.03 | 17.99 ± 0.03 | 28.16 ± 0.02 | 17.97 ± 0.02 | 15.62 ± 0.02 | 22.95 ± 0.05 | 50.54 ± 0.03 | 34.58 ± 0.02 | 34.99 ± 0.13 |
| COc1ccc(Nc2n[nH]c(N=Cc3c(C)nn(-c4ccccc4)c3Cl)c2C(=O)Nc2ccccc2)cc1 [6d] | 18.19 ± 0.03 | 15.64 ± 0.03 | 24.48 ± 0.01 | 15.62 ± 0.02 | 13.58 ± 0.02 | 19.95 ± 0.04 | 43.93 ± 0.03 | 40.11 ± 0.02 | 30.42 ± 0.11 |
| COc1ccc(Nc2n[nH]c(N=Cc3c(C)nn(-c4ccccc4)c3Cl)c2C(=O)Nc2ccc(C)cc2)cc1 [6e] | 18.25 ± 0.03 | 15.69 ± 0.03 | 24.56 ± 0.01 | 15.67 ± 0.02 | 13.63 ± 0.02 | 20.02 ± 0.04 | 44.08 ± 0.03 | 38.94 ± 0.02 | 30.52 ± 0.11 |
| C[C@H]1O[C@H](O[C@H]2[C@H](O)[C@@H](O)[C@@H](O[C@H]3[C@H](O)[C@@H](O)C(O)O[C@@H]3CO)O[C@@H]2CO)[C@H](O)[C@@H](O)[C@@H]1N[C@H]1C=C(CO)[C@@H](O)[C@H](O)[C@H]1O (stereo partly drawn) [Acarbose, reference compound] | 76.58 ± 0.01 | 53.94 ± 0.01 |  |  |  |  |  |  |  |
| O=C1O[C@H]([C@@H](O)CO)C(O)=C1O [Ascorbic Acid, reference compound] |  |  |  |  |  | 71.85 ± 0.05 | 41.25 ± 0.01 | 29.3 ± 0.01 | 79.10 ± 0.11 |
